Results on two compounds are retold here after US12391646B2, “Using adiponectin receptor agonists to treat inflammation and bone diseases in diabetes” (Trustees of Tufts College, priority 2020, dated 2025).

The experiment has as its system RAW 264.7 cells in high glucose medium. Kind of experiment: Osteoclastogenesis and autophagy of RANKL-treated RAW 264.7 cells in high glucose medium. The note with it: for RANKL-induced mRNA expression of Cathepsin K and TRAP: high glucose 25 mM, AdipoRon 20 μM; for LC3 mRNA, LC3II protein and LC3 puncta: high glucose medium with RANKL. The class given is cell-based. How it is done:
FIG. 20 RAW 264.7 cells were treated with RANKL (100 ng/ml) with or without AdipoRon ([…]) or AdipoAI (5 μM) in low (5 mmol/l) glucose, 20 mmol/l D-mannitol or high (25 mmol/l) glucose medium. qRT-PCR analysis of cathepsin K (A), TRAP (B) and microtubule associated protein 1 light chain 3 (LC3) (C), and mRNA expression were calculated (n≥3). (D) Western blot analysis of LC3A/B protein levels normalized to β-actin. (E) The mean of protein/β-actin ratios normalized to 1.0 (RANKL-AdipoRon-AdipoAI-H group) quantified by densitometry. (F) Autophagosome images obtained with laser confocal microscopy after the RAW 264.7 cells were transfected with a GFP-LC3 plasmid and treated with RANKL and AdipoRon or AdipoAI (scale bar=50 μm). Data are shown as mean±SD. *, P<0.05. **P<0.01. ***P<0.001.
FIG. 21 Autophagy inhibitor reverses AdipoAI-inhibited osteoclastogenesis in high glucose medium. RAW 264.7 cells were treated with RANKL (100 ng/ml) in 2 days and with or without AdipoAI (5 μM) for 24 hours followed by 3-methyladenine (3-MA, 2.5 mM) treatment for another 24 hours in high glucose medium. qRT-PCR analysis of cathepsin K (A), TRAP (B) and LC3 (C) mRNA expression were calculated (n≥3). (D) Western blot analysis of LC3A/B protein levels normalized to β-actin. (E) The mean of protein/β-actin ratios normalized to 1.0 (3-MA-, RANKL-, AdipoAI-group) quantified by densitometry. Data are shown as mean±SD. *, P<0.05. **P<0.01. ***P<0.001.
FIG. 22 AdipoAI-induced autophagy of osteoclasts in high glucose medium via AKT1/mTOR signaling pathway. RAW 264.7 cells were induced with RANKL for 2 days and then treated with or without (5 μM) additional 24 hours after serum starvation for 4 hours. Then, the cells were treated with RANKL, AdipoAI or SC79 (5 μM), an AKT activator, for another 24 hours in high glucose medium. qRT-PCR analysis of mRNA expression of cathepsin K (A), TRAP (B) and LC3 (C) were calculated (n≥3). (D) Representative images show the protein expression levels of AKT, p-AKT, AKT1, p-AKT1, mTOR, p-mTOR, and LC3A/B in osteoclasts. Quantitative analysis of bands is shown in (E-K) (n≥3). Data are shown as mean±SD. *, P<0.05. **P<0.01. ***P<0.001. R: RANKL. A, AI: AdipoAI. SC5: SC79 (5 μM).
RAW 264.7 cells (ATCC, Manassas, VA, USA) were cultured and passaged in DMEM supplemented with 10% (v/v) FBS (Invitrogen, Grand Island, NY, USA) and 1% Penicillin-Streptomycin (Gibco, Gaithersburg, MD, USA). For the induction of osteoclastogenesis, RAW 264.7 cells were cultured 24 in α-MEM supplemented with 10% FBS and 1% Penicillin-Streptomycin in the presence of 100 ng/ml RANKL (Peprotech, Rocky Hill, NJ, USA) for 2 days, and subsequently treated or not with AdipoRon or AdipoAI for another 2 days changing cell culture medium every 2 days. After a total of […] of culture, morphologic examination was performed, as was mRNA and protein expression. To simulate high glucose environment in vitro, α-MEM was supplemented with D-glucose to 25 mmol/l (high glucose) or 5 mmol/l (physiological glucose). 20 mmol/l D-mannitol served as an osmotic control.
Total RNA was isolated from cell cultures and gingival soft tissues using TriZol reagent (Life Technologies, Carlsbad, CA, USA) according to the manufacturer's instructions^24. Reverse transcription was performed using the PrimeScript RT Master Mix (Takara Bio, Otsu, Japan) and real-time-qPCR analyses were performed using SYBR-Green Real-Time PCR Master Mix (Takara Bio, Otsu, Japan) as described earlier^27.
Total cellular extracts were prepared using RIPA Lysis and Extraction Buffer containing three Protease Inhibitors (Santa Cruz, Dallas, TX, USA). Western blot analyses were performed as previously described 24. Antibodies for β-actin (1:2000) and GAPDH (1:5000), LC3A/B (1:1000), AKT1 (1:1000), p-AKT1 (1:1000), AKT (1:1000), p-AKT (1:1000), mTOR (1:1000), p-mTOR (1:1000) were purchased from Abcam and Cell Signaling Technology, respectively. SC79, an AKT activator was purchased from Sigma Aldrich. […]

The mark [1] stands for this setting: AdipoAI 5 μM, RANKL, high glucose medium.

Consider `COc1ccc(CN2CCC(NC(=O)COc3ccc(C(=O)c4ccc(Cl)cc4)cc3)CC2)cc1` [Compound 3], for which the “LC3 mRNA, LC3II protein and LC3 puncta” value was “increased the mRNA expression of LC3, protein expression of LC3II and LC3 puncta”. For the same compound, under setting [1], the “expression of AKT” value is listed as “inhibits the expression of AKT”, the “expression of LC3II” value is “promotes the expression of LC3II”, the “reduction of phosphorylation of AKT” value came to 21% and the “reduction of phosphorylation of AKT1” value is on record as 40%. The “reduction of phosphorylation of mTOR” value under setting [1] is recorded as 25%. In addition, the “RANKL-induced mRNA expression of Cathepsin K and TRAP” value (AdipoAI 5 μM) is recorded as “decreased the RANKL-induced mRNA expression of osteoclastogenesis markers”.
For `O=C(COc1ccc(C(=O)c2ccccc2)cc1)NC1CCN(Cc2ccccc2)CC1` [AdipoRon, reference compound], the “LC3 mRNA, LC3II protein and LC3 puncta” value is “increased the mRNA expression of LC3, protein expression of LC3II and LC3 puncta”. Moreover, the “RANKL-induced mRNA expression of Cathepsin K and TRAP” value (AdipoAI 5 μM) is “decreased the RANKL-induced mRNA expression of osteoclastogenesis markers”.
